This is an account of results in ChEMBL document CHEMBL5537137, “Design, synthesis and biological evaluation of biaryl amide derivatives against SARS-CoV-2 with dual-target mechanism” (Eur J Med Chem, 2024).

The nature of data set [1]: Cytotoxicity against human NCI-H460 cells incubated for 72 hrs by CCK-8 assay.
A further data set in a line: in vitro. The note with it: human, NCI-H460 cells.
The next data set has as its system Human coronavirus OC43. Kind of data set: microbe, parasite or virus in culture. The note with it: Betacoronavirus 1, VR-1558, NCI-H460, 72 h.

Description for Human coronavirus OC43: Antiviral activity against HCoV-OC43 VR-1558 infected in human NCI-H460 cells assessed as inhibition of viral growth incubated for 72 hrs by CCK-8 assay
Description for in vitro: Selectivity index, ratio of CC50 for cytotoxicity against human NCI-H460 cells to EC50 for antiviral activity against HCoV-OC43 VR-1558 infected in human NCI-H460 cells

Regarding `CCC(=O)Nc1cc(C(=O)Nc2ccc(CN3CCN(C)CC3)nc2)ccc1OCCCCl`, in data set [1], the CC50 at 72 h amounted to 82.7 µM. The selectivity ratio in “in vitro” is 2. Also, the EC50 in the data set with Human coronavirus OC43 is 41.5 µM.
As for `COc1ccc(C(=O)Nc2ccc(CN3CCN(C)CC3)c(C(F)(F)F)c2)cc1S(N)(=O)=O`, the midpoint of cytotoxicity in data set [1], the CC50 at 72 h, lay at 123 µM. In “in vitro”, the selectivity ratio was 6.17. In the data set on Human coronavirus OC43, this compound came in with an EC50 of 19.9 µM.
On the same counts, the results for `CN(C)C1CC(Oc2ccc(NC(=O)c3ccc(OCCC(F)(F)F)c([N+](=O)[O-])c3)cc2C(F)(F)F)C1` (centres undefined) are 31.3 µM, 16 and 2.01 µM.
On the same counts, the results for `CN(C)C1CC(Oc2ccc(NC(=O)c3ccc(OCC45CC6CC(CC(C6)C4)C5)c([N+](=O)[O-])c3)cc2C(F)(F)F)C1` (centres undefined) are 2.51 µM, less than 1.7 and more than 1.56 µM.
For `CN(C)C1CN(Cc2ccc(NC(=O)c3ccc(OCc4cc(C(F)(F)F)cc(C(F)(F)F)c4)c([N+](=O)[O-])c3)cc2C(F)(F)F)C1`, in that order: 5.07 µM, less than 1.7 and more than 3.13 µM.
Compound `C=CCOc1ccc(C(=O)Nc2ccc(CN3CC(N(C)C)C3)c(C(F)(F)F)c2)cc1[N+](=O)[O-]` gave a CC50 at 72 h in data set [1] of 28.1 µM. For the same compound, in the data set “in vitro”, the selectivity ratio was 4. The concentration giving a half-maximal response (EC50) in the data set with Human coronavirus OC43 came to 7.61 µM.
On the same counts, the results for `CN1CCN(Cc2ccc(NC(=O)c3ccc(OCCF)c([N+](=O)[O-])c3)cc2C(F)(F)F)CC1` are 24.5 µM, 9 and 2.64 µM.
On the same counts, the results for `CN(C)C1CCN(Cc2ccc(NC(=O)c3ccc(OCCCCl)c([N+](=O)[O-])c3)cc2C(F)(F)F)CC1` are 18.5 µM, 4.7 and 3.93 µM.
On the same counts, the results for `CN1CCN(Cc2ccc(NC(=O)c3ccc(OCCCCl)c([N+](=O)[O-])c3)cc2C#N)CC1` are 136 µM, 11.2 and 12.1 µM.
In turn, `CN1CCN(CCCNC(=O)C2CN(Cc3ccc(NC(=O)c4ccc(OCCCCl)c([N+](=O)[O-])c4)cc3C(F)(F)F)C2)CC1` displayed a cytotoxic concentration (CC50) at 72 h in data set [1] of 59.1 µM. Further, the selectivity ratio in “in vitro” worked out at 3.2. In addition, in the data set on Human coronavirus OC43, a half-maximal response (EC50) required 18.6 µM.
For `CN(C)C1CC(Oc2ccc(NC(=O)c3ccc(OCc4cc(C(F)(F)F)cc(C(F)(F)F)c4)c([N+](=O)[O-])c3)cc2C(F)(F)F)C1` (centres undefined), in that order: 17 µM, 1 and 11.7 µM.
`CC1CN(Cc2ccc(NC(=O)c3ccc(OCCCCl)c([N+](=O)[O-])c3)cc2C(F)(F)F)CC(C)O1` (centres undefined) displayed a cytotoxic concentration (CC50) at 72 h in data set [1] of 4.69 µM. For the same compound, the selectivity ratio in the data set “in vitro” is 2. This compound yielded an EC50 in the data set with Human coronavirus OC43 of 2.49 µM.
`CCC(=O)Nc1cc(C(=O)Nc2ccc(CN3CC(N(C)C)C3)c(C(F)(F)F)c2)ccc1OCCCCl` displayed a half-maximal cytotoxic concentration (CC50) at 72 h in data set [1] of 96.2 µM. Further, in “in vitro”, the selectivity ratio was determined as 4.3. In the data set on Human coronavirus OC43, the EC50 was found to be 22.2 µM.
As for `CN(C)C1CN(Cc2ccc(NC(=O)c3ccc(OCC4CC4)c([N+](=O)[O-])c3)cc2C(F)(F)F)C1`, in data set [1], the cytotoxic concentration (CC50) at 72 h turned out to be 14.6 µM. Moreover, the selectivity ratio in “in vitro” turned out to be 14.5. Also, the midpoint of the response in the data set on Human coronavirus OC43, the EC50, lay at 1.01 µM.
In data set [1], `CN1CCN(Cc2ccc(NC(=O)c3ccc(OCCCCl)c(S(N)(=O)=O)c3)cc2C(F)(F)F)CC1` gave a half-maximal cytotoxic concentration (CC50) at 72 h of 40.4 µM. The selectivity ratio in the data set “in vitro” came out at 9.8. In addition, in the data set on Human coronavirus OC43, the EC50 was 4.11 µM.
Take `CN(C)C1CC(Oc2ccc(NC(=O)c3ccc(OCC(F)F)c([N+](=O)[O-])c3)cc2C(F)(F)F)C1` (centres undefined): half-maximal cytotoxicity in data set [1] (CC50 at 72 h) was put at 34.3 µM. Also, the selectivity ratio in the data set “in vitro” came to 13. This compound also came in with an EC50 in the data set on Human coronavirus OC43 of 2.58 µM.
In data set [1], `CN1CCN(Cc2ccc(NC(=O)c3ccc(OCCCl)c([N+](=O)[O-])c3)cc2C(F)(F)F)CC1` showed a CC50 at 72 h of 13 µM. Also, in the data set “in vitro”, the selectivity ratio worked out at 3.5. The compound also came in with an EC50 with Human coronavirus OC43 of 3.73 µM.
For `COc1ccc(C(=O)Nc2ccc(OC3CC(N(C)C)C3)cc2C(F)(F)F)cc1[N+](=O)[O-]` (centres undefined), in that order: 99.5 µM, 3 and 28.6 µM.
For `CN(C)C1CN(Cc2ccc(NC(=O)c3ccc(OCCCCl)c([N+](=O)[O-])c3)cc2C(F)(F)F)C1`, in that order: 49.8 µM, 6 and 8.64 µM.
The compound `CN1CCN(Cc2ccc(NC(=O)c3ccc(OO)c([N+](=O)[O-])c3)cc2C(F)(F)F)CC1` gave a half-maximal cytotoxic concentration (CC50) at 72 h in data set [1] of more than 200 µM. For the same compound, the selectivity ratio in “in vitro” is more than 8. In addition, it took 26.2 µM to reach a half-maximal effect in the data set on Human coronavirus OC43 (EC50).
For `CN(C)C1CN(Cc2ccc(NC(=O)c3ccc(OCC45CC6CC(CC(C6)C4)C5)c([N+](=O)[O-])c3)cc2C(F)(F)F)C1`, in that order: 4.63 µM, less than 1.7 and more than 3.13 µM.
For `CN1CCN(Cc2ccc(NC(=O)c3ccc(OCCCCl)c([N+](=O)[O-])c3)cn2)CC1`, in that order: 43.7 µM, 2.3 and 19.2 µM.
For `CN1CCN(Cc2ccc(NC(=O)c3ccc(OCCCCl)c(NS(C)(=O)=O)c3)cc2C(F)(F)F)CC1`, in that order: 38.5 µM, 3 and 12.8 µM.
Regarding `CC(C)Oc1ccc(C(=O)Nc2ccc(CN3CCN(C)CC3)c(C(F)(F)F)c2)cc1[N+](=O)[O-]`, in data set [1], the CC50 at 72 h was 19.2 µM. In addition, the selectivity ratio in the data set “in vitro” worked out at 5.4. The compound further gave a concentration giving a half-maximal response (EC50) in the data set on Human coronavirus OC43 of 3.54 µM.
On the same counts, the results for `COc1ccc(C(=O)Nc2ccc(CN3CC(N(C)C)C3)c(C(F)(F)F)c2)cc1[N+](=O)[O-]` are more than 200 µM, more than 17 and 12.1 µM.
On the same counts, the results for `CC1CC(C)CN(CCCNC(=O)C2CN(Cc3ccc(NC(=O)c4ccc(OCCCCl)c([N+](=O)[O-])c4)cc3C(F)(F)F)C2)C1` (centres undefined) are 14.9 µM, 4.7 and 3.18 µM.
As to `CN(C)C1CN(Cc2ccc(NC(=O)c3ccc(OCC(F)F)c([N+](=O)[O-])c3)cc2C(F)(F)F)C1`, in data set [1], the CC50 at 72 h came out at 34.1 µM. Also, in the data set “in vitro”, the selectivity ratio stood at 8. This compound registered an EC50 in the data set on Human coronavirus OC43 of 4.51 µM.
For `CN(C)C1CC(Oc2ccc(NC(=O)c3ccc(OCCF)c([N+](=O)[O-])c3)cc2C(F)(F)F)C1` (centres undefined), in that order: 27.1 µM, 15 and 1.79 µM.
In data set [1], `CN(C)C1CCN(Cc2ccc(NC(=O)c3ccc(OCC4CC4)c([N+](=O)[O-])c3)cc2C(F)(F)F)CC1` registered a CC50 at 72 h of 14.2 µM. Moreover, the selectivity ratio in “in vitro” is 11. Also, in the data set on Human coronavirus OC43, the concentration for a half-maximal effect (EC50) worked out at 1.24 µM.
On the same counts, the results for `COc1ccc(C(=O)Nc2ccc(CN3CCN(C)CC3)c(C(F)(F)F)c2)cc1[N+](=O)[O-]` are 30.4 µM, 10.8 and 2.81 µM.
In data set [1], `CN(C)C1CCN(Cc2ccc(NC(=O)c3ccc(OCCCCl)c([N+](=O)[O-])c3)cc2C(F)(F)F)C1` (centres undefined) yielded a 50% cytotoxic concentration (CC50) at 72 h of 28.2 µM. In addition, the selectivity ratio in “in vitro” is 2.9. Further, the concentration giving a half-maximal response (EC50) in the data set with Human coronavirus OC43 is 9.76 µM.
Consider `CN1CCN(Cc2ccc(NC(=O)c3ccc(OCCCCl)c(S(=O)(=O)O)c3)cc2C(F)(F)F)CC1`, for which the CC50 at 72 h in data set [1] was more than 200 µM. Also, the selectivity ratio in “in vitro” was 7. Further, a half-maximal response in the data set with Human coronavirus OC43 (EC50) required 36.8 µM.
As for `CN1CCN(Cc2ccc(NC(=O)c3ccc(OCCCCl)c(C(F)(F)F)c3)cc2C(F)(F)F)CC1`, the CC50 at 72 h in data set [1] was found to be 6.2 µM. Also, the selectivity ratio in the data set “in vitro” turned out to be 2. For the same compound, the concentration for a half-maximal effect (EC50) in the data set with Human coronavirus OC43 came to 2.94 µM.
On the same counts, the results for `Cc1ccc(NC(=O)c2ccc(OCCCCl)c([N+](=O)[O-])c2)cc1C(F)(F)F` are 82.4 µM, 21 and 3.83 µM.
On the same counts, the results for `CN(C)C1CN(Cc2ccc(NC(=O)c3ccc(OCCF)c([N+](=O)[O-])c3)cc2C(F)(F)F)C1` are 75.2 µM, 25.7 and 2.93 µM.
In data set [1], `CN1CCN(Cc2ccc(NC(=O)c3ccc(OCCCCl)c([N+](=O)[O-])c3)cc2C(F)(F)F)CC1` gave a CC50 at 72 h of 15 µM. Moreover, the selectivity ratio in the data set “in vitro” was determined as 6.1. In the data set on Human coronavirus OC43, this compound came in with a concentration giving a half-maximal response (EC50) of 2.47 µM.
With `CN1CCN(Cc2ccc(NC(=O)c3ccc(OCCCF)c([N+](=O)[O-])c3)cc2C(F)(F)F)CC1`, the CC50 at 72 h in data set [1] is 17.8 µM. In addition, in “in vitro”, the selectivity ratio worked out at 7. Also, the EC50 with Human coronavirus OC43 stood at 2.45 µM.
Regarding `CN(C)C1CC(Oc2ccc(NC(=O)c3ccc(OCC4CC4)c([N+](=O)[O-])c3)cc2C(F)(F)F)C1` (centres undefined), in data set [1], the half-maximal cytotoxic concentration (CC50) at 72 h was 8.51 µM. In addition, the selectivity ratio in “in vitro” stood at 7. In the data set with Human coronavirus OC43, this compound came in with an EC50 of 1.24 µM.
On the same counts, the results for `COc1ccc(C(=O)Nc2ccc(OC3CC(N(C)C)C3)c(C(F)(F)F)c2)cc1[N+](=O)[O-]` (centres undefined) are 139 µM, 7 and 19.5 µM.
For `CN1CCN(Cc2ccc(NC(=O)c3ccc(OCCCCl)c(F)c3)cc2C(F)(F)F)CC1`, in that order: 13.4 µM, 3 and 5.34 µM.
In data set [1], `O=C(Nc1ccc(CN2CC(C(=O)O)C2)c(C(F)(F)F)c1)c1ccc(OCCCCl)c([N+](=O)[O-])c1` showed a CC50 at 72 h of more than 200 µM. The compound also gave an EC50 in the data set with Human coronavirus OC43 of more than 66.7 µM.
Regarding `CCOc1ccc(C(=O)Nc2ccc(OC3CC(N(C)C)C3)c(C(F)(F)F)c2)cc1[N+](=O)[O-]` (centres undefined), the 50% cytotoxic concentration (CC50) at 72 h in data set [1] turned out to be 55.4 µM. Further, in the data set “in vitro”, the selectivity ratio came to 17.9. Further, in the data set on Human coronavirus OC43, the EC50 was determined as 3.09 µM.
For `CN(C)C1CC(Oc2ccc(NC(=O)c3ccc(O)c([N+](=O)[O-])c3)cc2C(F)(F)F)C1` (centres undefined), in that order: 186 µM, 7 and 27.2 µM.
On the same counts, the results for `CCC(=O)Nc1cc(C(=O)Nc2ccc(CN3CCN(C)CC3)c(C(F)(F)F)c2)ccc1OCCCCl` are 27.1 µM, 4.73 and 5.74 µM.
For `CN(C)C1CC(Oc2ccc(NC(=O)c3ccc(OCCCl)c([N+](=O)[O-])c3)cc2C(F)(F)F)C1` (centres undefined), in that order: 9.94 µM, 9.1 and 1.09 µM.
